Results from patent US8716295B2, “Fluoroquinolone derivatives or sulfonamide moiety-containing compounds as inhibitors of tyrosyl-dnaphosphodiesterase (TDP1)” (priority 2010, dated 2014).
“Also recorded” adds a separate entry of the source. Read-outs that look alike come from different tables or passages of the source.

Legend:
[1] = system: human osteosarcoma U2OS cells; assay: Cytotoxicity/proliferation (MTS) assay for synergy with camptothecin; assay type: cell-based; conditions: 72 hours, NF-SDM at 3, 6 and 12 μM
Method: U2OS cells (Developmental Therapeutics Program, NCI) were plated at 3×10^3 cells in a total volume of 100 μl per well in a 96 well plate and incubated at 37° C./5% CO2 for 24 hours prior to drug treatment. CPT and another drug of interest (both in DMSO stock solution) were prepared at double the desired concentration, and serially diluted in cells' media. After medium was aspirated off cells, 50 μl of CPT was plated down each column at four-fold dilutions in subsequent columns and 50 μl of another drug of interest was plated across rows, at two-fold dilutions in subsequent rows. A single drug dose response was also included for each drug tested, to which 50 μl of regular media was added to reconstitute a final volume of 100 μl in each well. Plates were further incubated for 72 hours and proliferation was assayed by adding 20 μl of 3-(4,5-dimethylthiazol-2-yl)-5-(3 carboxymethoxyphenyl)-2-(4-sulfophenyl)-2H-tetrazolium (MTS) Cell Titer Reagent (Promega) to each well. Plates were lightly mixed and placed back into the incubator until the appropriate color change occurred (˜1 hr), at which point plates were read on a Molecular Device Gemini fluorescence plate reader at an absorbance of 490 nm for cell viability. Raw data were plotted using GraphPad Prism and compared to each sample's control (GraphPad Software Inc.).

recombinant Tdp1 = recombinant Tdp1 (Homo sapiens, UniProt Q9NUW8); assay: Gel-based Tdp1 catalytic activity inhibition assay (5'-32P-labeled N14Y DNA substrate, denaturing PAGE); assay type: biochemical; conditions: for IC50: 0.2 nmol/L recombinant Tdp1, 1 nmol/L N14Y substrate, 15 min, room temperature
Chain of recombinant Tdp1 (Q9NUW8 whole entry): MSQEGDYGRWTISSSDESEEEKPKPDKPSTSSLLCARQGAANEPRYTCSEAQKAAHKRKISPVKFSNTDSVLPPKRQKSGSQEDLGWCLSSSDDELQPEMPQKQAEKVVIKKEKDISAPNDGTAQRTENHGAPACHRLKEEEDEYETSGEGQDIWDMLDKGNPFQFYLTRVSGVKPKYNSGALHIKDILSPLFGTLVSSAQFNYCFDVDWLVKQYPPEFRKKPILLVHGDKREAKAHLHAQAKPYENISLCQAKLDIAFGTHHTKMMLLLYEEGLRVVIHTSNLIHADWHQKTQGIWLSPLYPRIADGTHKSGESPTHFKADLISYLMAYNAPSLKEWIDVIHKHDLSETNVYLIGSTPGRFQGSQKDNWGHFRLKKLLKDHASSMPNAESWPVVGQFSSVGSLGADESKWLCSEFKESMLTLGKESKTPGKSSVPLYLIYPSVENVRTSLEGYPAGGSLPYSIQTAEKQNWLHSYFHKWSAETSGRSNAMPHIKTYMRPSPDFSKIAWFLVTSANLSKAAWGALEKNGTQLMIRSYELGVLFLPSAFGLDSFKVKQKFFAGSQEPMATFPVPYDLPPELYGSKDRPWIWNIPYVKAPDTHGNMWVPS
Method: 5′-^32P-labeled DNA substrate (1 nmol/L; N14Y; 5′-[…]-pY-3′) was incubated with 0.2 nmol/L recombinant Tdp1 in the absence or presence of inhibitor for 15 min at room temperature in an assay buffer containing 1×PBS, pH 7.4, 80 mmol/L KCl and 0.01% Tween-20. Reactions were terminated by the addition of 1 volume of gel loading buffer [99.5% (v/v) formamide, 5 mmol/L EDTA, 0.01% (w/v) xylene cyanol, and 0.01% (w/v) bromophenol blue]. Samples were subjected to a 16% denaturing PAGE and gels were exposed after drying to a PhosphorImager screen (GE Healthcare). Gel images were scanned using a Typhoon 8600 (GE Healthcare) and densitometric analyses were performed using the ImageQuant software package (GE Healthcare).

[2] = read-out: unable to inhibit Tdp1 / inactive at concentrations up to

Row | IC50 (recombinant Tdp1; [2]) [µM] | SMILES | synergy with the TopI poison camptothecin (CPT) on cell growth/viability [1] | Tdp1 inhibitory activity (in words) (recombinant Tdp1) | IC50 (recombinant Tdp1; read-out: inhibit Tdp1 catalytic activity (IC50 Tdp1 inhibition)) [µM]
1 |  | CCn1cc(C(=O)O)c(=O)c2cc(F)c(N3CCN(CNc4ccc(S(=O)(=O)Nc5nc(C)cc(C)n5)cc4)CC3)cc21 [NF-SDM] | synergize with CPT; also recorded: synergistic effect; also recorded: acts synergistically | nanomolar range | 0.005
2 | > 333 | COc1c(N2CCNC(C)C2)c(F)cc2c(=O)c(C(=O)O)cn(C3CC3)c12 (stereo not shown) [gatifloxacin] |  |  | 
3 | > 333 | CCn1cc(C(=O)O)c(=O)c2cc(F)c(N3CCNCC3)cc21 [norfloxacin] |  |  | 
4 | > 333 | Cc1cc(C)nc(NS(=O)(=O)c2ccc(N)cc2)n1 [sulfadimidine] |  | does not inhibit Tdp1 | 
